In the supplement of paper PMC10307832:

What was measured:
Assay in all cases: relative viability (nuclei count vs DMSO), 5 days (fraction); higher = more cells survive
RO-3306 + Luminespib = compound: C1=CC2=C(C=CC(=C2)C=C3C(=O)NC(=NCC4=CC=CS4)S3)N=C1 [RO-3306] + CCNC(=O)c1noc(-c2cc(C(C)C)c(O)cc2O)c1-c1ccc(CN2CCOCC2)cc1 [Luminespib] (partner 0.01 µM)
How it was run: (§1)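 Relative viability divides the nuclei count in treated wells by that in vehicle wells. Lung cancer cell lines were seeded in 1536-well plates, dosed by pin tool the next day, and fixed and stained after 5 days in one step with final 0.05% Triton X-100, 1% formaldehyde and 1 ug/ml Hoechst. Dosing was a single drug or a fixed anchor-drug dose plus five library-drug doses (not always all listed) in √10 steps, and values are medians of duplicate plates imaged at 4×.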

RO-3306 + Olaparib = compound: C1=CC2=C(C=CC(=C2)C=C3C(=O)NC(=NCC4=CC=CS4)S3)N=C1 [RO-3306] + O=C(c1cc(Cc2n[nH]c(=O)c3ccccc23)ccc1F)N1CCN(C(=O)C2CC2)CC1 [Olaparib] (partner 8 µM)
How it was run: as §1

[1] = compound: O=S(=O)(c1ccccc1)N(CC(F)(F)F)c1ccc(C(O)(C(F)(F)F)C(F)(F)F)cc1 + CC(=O)Nc1cccc(-n2c(=O)n(C3CC3)c(=O)c3c(Nc4ccc(I)cc4F)n(C)c(=O)c(C)c32)c1 [Trametinib] (partner 0.02 µM)
How it was run: as §1

[2] = compound: O=S(=O)(c1ccccc1)N(CC(F)(F)F)c1ccc(C(O)(C(F)(F)F)C(F)(F)F)cc1 + Cc1nc(Nc2ncc(C(=O)Nc3c(C)cccc3Cl)s2)cc(N2CCN(CCO)CC2)n1 [Dasatinib] (partner 0.075 µM)
How it was run: as §1

Cell Line | relative viability (RO-3306 + Luminespib; first compound 0.01 µM) | relative viability (RO-3306 + Luminespib; first compound 0.03162 µM) | relative viability (RO-3306 + Luminespib; first compound 0.1 µM) | relative viability (RO-3306 + Luminespib; first compound 0.3162 µM) | relative viability (RO-3306 + Luminespib; first compound 1 µM) | relative viability (RO-3306 + Olaparib; first compound 0.01 µM) | relative viability (RO-3306 + Olaparib; first compound 0.03162 µM) | relative viability (RO-3306 + Olaparib; first compound 0.1 µM) | relative viability (RO-3306 + Olaparib; first compound 0.3162 µM) | relative viability (RO-3306 + Olaparib; first compound 1 µM) | relative viability ([1]; first compound 0.8 µM) | relative viability ([1]; first compound 2.53 µM) | relative viability ([1]; first compound 8 µM) | relative viability ([2]; first compound 0.8 µM) | relative viability ([2]; first compound 2.53 µM) | relative viability ([2]; first compound 8 µM)
CAL-12T | 0.68 | 0.517 | 0.228 | 0.433 | 0.604 | 0.808 | 0.717 | 0.668 | 0.777 | 0.737 | 0.247 | 0.265 | 0.238 | 0.331 | 0.216 | 0.392
NCI-H2085 | 0.377 | 0.499 | 0.517 | 0.437 | 0.46 | 0.699 | 0.685 | 0.811 | 0.714 | 0.757 | 0.471 | 0.496 | 0.472 | 0.226 | 0.238 | 0.204
LOU-NH91 | 0.348 | 0.298 | 0.312 | 0.28 | 0.291 | 0.953 | 0.834 | 0.916 | 0.913 | 0.813 | 0.919 | 0.844 | 0.914 | 0.576 | 0.567 | 0.68
NCI-H1975 | 0.443 | 0.142 | 0.242 | 0.175 | 0.294 | 1.07 | 0.711 | 0.835 | 0.918 | 0.953 | 0.341 | 0.338 | 0.316 | 0.353 | 0.339 | 0.298
NCI-H23 | 0.237 | – | – | 0.216 | 0.204 | 0.333 | – | 0.25 | 0.307 | 0.268 | 0.392 | 0.379 | 0.343 | 1.03 | 1.04 | 0.907
LCLC-103H | 0.872 | 0.882 | 0.955 | 0.93 | 1.03 | 0.836 | 0.776 | 0.772 | 0.733 | 0.784 | 0.71 | 0.731 | 0.739 | 0.553 | 0.484 | 0.51
HCC-827 | 0.502 | 0.433 | 0.588 | 0.586 | 0.786 | 0.705 | 0.67 | 0.627 | 0.715 | 0.666 | 0.527 | 0.503 | 0.244 | 0.37 | 0.36 | 0.316
NCI-H2347 | 1.03 | 0.43 | 0.825 | 0.253 | 0.575 | 0.598 | 0.596 | 0.565 | 0.464 | 0.594 | 0.304 | 0.277 | 0.292 | 0.263 | 0.24 | 0.289
PC-3 [JPC-3] | 0.642 | 0.638 | 0.778 | 0.667 | 0.864 | 1.21 | 1.07 | 1.11 | 1.17 | 1.12 | – | 0.678 | 0.678 | 1.03 | 1.05 | 0.972
NCI-H1792 | 0.587 | – | 0.568 | 0.349 | 0.341 | 0.544 | – | 0.484 | 0.51 | 0.436 | 0.407 | 0.303 | 0.287 | 0.712 | 0.587 | 0.506
NCI-H1651 | 1.21 | 0.873 | 0.857 | 1.03 | 0.802 | 0.177 | 0.168 | 0.181 | 0.174 | 0.177 | 0.853 | 0.867 | 0.739 | 0.486 | 0.434 | 0.306
NCI-H3122 | 0.113 | 0.108 | 0.0505 | 0.101 | 0.122 | 0.707 | 0.561 | 0.604 | 0.61 | 0.604 | 0.166 | 0.143 | 0.221 | 0.725 | 0.525 | 0.817
LC-2-ad | 1.01 | 0.907 | 0.966 | 1.09 | 1.02 | 0.703 | 0.663 | 0.719 | 0.693 | 0.712 | 0.881 | 0.884 | 0.758 | 0.655 | 0.525 | 0.627
NCI-H650 | 0.716 | 0.755 | 0.813 | 0.798 | 0.789 | 0.316 | 0.373 | 0.37 | 0.382 | 0.361 | 1.1 | 0.983 | 0.782 | 0.368 | 0.425 | 0.479
LXF-289 | 0.766 | 0.654 | 0.593 | 0.603 | 0.577 | 1.06 | 0.897 | 1.06 | 1.08 | 0.692 | 0.582 | 0.532 | 0.518 | 0.163 | 0.141 | 0.153
NCI-H2009 | 1.1 | 0.979 | 1.07 | 0.992 | 0.976 | 0.789 | 0.684 | 0.694 | 0.796 | 0.727 | 0.259 | 0.246 | 0.289 | 0.241 | 0.249 | 0.302
NCI-H2342 | 0.742 | 0.627 | 0.727 | 0.759 | 0.73 | 0.574 | 0.499 | 0.428 | 0.437 | 0.379 | 0.917 | 0.854 | 0.861 | 0.286 | 0.31 | 0.326
